In ChEMBL document CHEMBL5528078, “Structural Basis for Molecular Recognition of Cannabinoids by Inhibitory Cys-Loop Channels” (J Med Chem, 2024) one finds IC50 and EC50 data, which are given here for 3 molecules.

The target in data set [1] is T1, Glycine receptor subunit alpha-1 (Homo sapiens, UniProt P23415).
T1 sequence (P23415 whole entry): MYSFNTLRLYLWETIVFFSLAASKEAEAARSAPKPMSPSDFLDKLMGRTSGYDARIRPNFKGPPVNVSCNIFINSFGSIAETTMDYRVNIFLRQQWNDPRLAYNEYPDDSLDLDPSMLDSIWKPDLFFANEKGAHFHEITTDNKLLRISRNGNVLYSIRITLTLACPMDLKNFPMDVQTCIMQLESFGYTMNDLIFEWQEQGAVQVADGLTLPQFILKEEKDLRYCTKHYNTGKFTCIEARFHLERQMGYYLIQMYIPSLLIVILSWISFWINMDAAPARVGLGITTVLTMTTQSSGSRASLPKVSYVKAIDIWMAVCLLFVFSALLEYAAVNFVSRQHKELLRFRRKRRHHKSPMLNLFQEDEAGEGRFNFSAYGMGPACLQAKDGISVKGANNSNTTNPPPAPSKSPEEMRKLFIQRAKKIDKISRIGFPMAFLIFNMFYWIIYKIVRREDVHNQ
The data set is described as follows: Inhibition of human […] glycine receptor alpha 1 expressed in HEK293 cells. It counts as cell-based.

In data set [2] the target is T2, Glycine receptor subunit alpha-2 (Homo sapiens, UniProt P23416).
T2 sequence (P23416 whole entry): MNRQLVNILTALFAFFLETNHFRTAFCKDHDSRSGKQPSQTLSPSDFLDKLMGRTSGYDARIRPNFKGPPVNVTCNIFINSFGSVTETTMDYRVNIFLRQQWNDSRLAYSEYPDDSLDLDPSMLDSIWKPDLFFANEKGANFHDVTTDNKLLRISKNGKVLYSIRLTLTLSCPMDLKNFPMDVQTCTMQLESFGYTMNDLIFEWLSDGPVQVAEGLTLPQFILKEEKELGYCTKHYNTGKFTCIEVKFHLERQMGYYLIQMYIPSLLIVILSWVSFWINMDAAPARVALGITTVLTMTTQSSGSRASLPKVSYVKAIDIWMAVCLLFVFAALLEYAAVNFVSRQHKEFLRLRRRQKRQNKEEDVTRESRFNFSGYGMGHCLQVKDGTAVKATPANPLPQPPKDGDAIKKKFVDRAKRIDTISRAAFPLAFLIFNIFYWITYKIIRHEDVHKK
The data set is described as follows: Inhibition of human […] glycine receptor alpha 2 expressed in HEK293 cells. The data set is classed as cell-based.

Data set [3] can be described thus: Cytotoxicity against HEK293 cells assessed as inhibition of cell growth incubated for 48 hrs by CCK8 assay. It counts as toxicity, cell-based. Particulars: human.
Data set [4] is described as follows: Inhibition of […] glycine receptor (unknown origin) expressed in HEK293 cells. It counts as cell-based, Homo sapiens.

What is called IC50 is the point on the concentration scale where inhibition reaches its midpoint. Higher therefore signals weaker potency. Take `CCCCCCC(C)(C)c1cc(O)c2c(c1)OC(C)(C)[C@@H]1CC=C(CO)C[C@@H]21`: half-maximal inhibition in data set [1] (IC50) required 2700 nM.

Broadly, the EC50 is the concentration that produces a half-maximal response. Molecule `C=C(C)[C@@H]1CCC(C)=C[C@H]1c1c(O)cc(CCCCC)cc1O` [CANNABIDIOL] gave an IC50 in data set [2] of 2700 nM. In addition, in data set [3], the EC50 at 48 h turned out to be 12000 nM.

On to `CCCCCc1cc(O)c2c(c1)OC(C)(C)[C@@H]1CCC(C)=C[C@@H]21` [DRONABINOL], for which the IC50 in data set [4] was 2700 nM.
